In ChEMBL document CHEMBL4507259 (2021):

Tests used:
SU-DHL10 = assay: SuDHL10 cell line Proliferation assay; type: functional, Homo sapiens; conditions: Compound concentration 10 uM; time 3 day
DU-145 = assay: DU-145 cell line Proliferation assay; type: functional, Homo sapiens; conditions: Compound concentration 10 uM; time 5 day
JVM-2 = assay: JVM-2 cell line Proliferation assay; type: functional, Homo sapiens; conditions: Compound concentration 10 uM; time 3 day
NCI-H1836 = assay: H1836 cell line Proliferation assay; type: functional, Homo sapiens; conditions: Compound concentration 10 uM; time 4 day
OCI-Ly18 = assay: OCI Ly18 cell line Proliferation assay; type: functional, Homo sapiens; conditions: Compound concentration 10 uM; time 3 day
Hs 294T = assay: Hs294T cell line Proliferation assay; type: functional, Homo sapiens; conditions: Compound concentration 10 uM; time 5 day
OCI-Ly7 = assay: OCI Ly7 cell line Proliferation assay; type: functional, Homo sapiens; conditions: Compound concentration 10 uM; time 3 day
Hs 695T = assay: Hs695T cell line Proliferation assay; type: functional, Homo sapiens; conditions: Compound concentration 10 uM; time 5 day
CHL-1 = assay: CHL1 cell line Proliferation assay; type: functional, Homo sapiens; conditions: Compound concentration 10 uM; time 5 day
NU-DHL-1 = assay: NuDHL1 cell line Proliferation assay; type: functional, Homo sapiens; conditions: Compound concentration 10 uM; time 3 day
HCC1599 = assay: HCC1599 cell line Proliferation assay; type: functional, Homo sapiens; conditions: Compound concentration 10 uM; time 5 day
U-937 = assay: U937 cell line Proliferation assay; type: functional, Homo sapiens; conditions: Compound concentration 10 uM; time 3 day
Karpas-1106P = assay: K1106 cell line Proliferation assay; type: functional, Homo sapiens; conditions: Compound concentration 10 uM; time 3 day
CWR22R = assay: 22Rv1 cell line Proliferation assay; type: functional, Homo sapiens; conditions: Compound concentration 10 uM; time 5 day
SU-DHL-16 = assay: SuDHL16 cell line Proliferation assay; type: functional, Homo sapiens; conditions: Compound concentration 10 uM; time 3 day
NCI-H1930 = assay: H1930 cell line Proliferation assay; type: functional, Homo sapiens; conditions: Compound concentration 10 uM; time 4 day
SK-MEL-1 = assay: SKMEL1 cell line Proliferation assay; type: functional, Homo sapiens; conditions: Compound concentration 10 uM; time 5 day
DU-4475 = assay: DU4475 cell line Proliferation assay; type: functional, Homo sapiens; conditions: Compound concentration 10 uM; time 5 day
NCI-H128 = assay: H128 cell line Proliferation assay; type: functional, Homo sapiens; conditions: Compound concentration 10 uM; time 4 day
HCC2935 = assay: HCC2935 cell line Proliferation assay; type: functional, Homo sapiens; conditions: Compound concentration 10 uM; time 3 day
SET-2 = assay: SET-2 cell line Proliferation assay; type: functional, Homo sapiens; conditions: Compound concentration 10 uM; time 3 day
[1] = target: Adenosine receptor A1 (Homo sapiens) (UniProt P30542); assay: A1 (h) CEREP ligand profiling; conditions: filed as antagonist, Compound concentration 10.0 uM
Kasumi 1 = assay: Kasumi-1 cell line Proliferation assay; type: functional, Homo sapiens; conditions: Compound concentration 10 uM; time 3 day
SU-DHL-6 = assay: SuDHL6 cell line Proliferation assay; type: functional, Homo sapiens; conditions: Compound concentration 10 uM; time 3 day
U-2940 = assay: U2940 cell line Proliferation assay; type: functional, Homo sapiens; conditions: Compound concentration 10 uM; time 3 day
Ramos = assay: Ramos cell line Proliferation assay; type: functional, Homo sapiens; conditions: Compound concentration 10 uM; time 3 day
AMO1 = assay: AMO-1 cell line Proliferation assay; type: functional, Homo sapiens; conditions: Compound concentration 10 uM; time 3 day
SC1 = assay: Sc1 cell line Proliferation assay; type: functional, Homo sapiens; conditions: Compound concentration 10 uM; time 3 day
EOL1 = assay: EOL-1 cell line Proliferation assay; type: functional, Homo sapiens; conditions: Compound concentration 10 uM; time 3 day
[2] = target: 5-hydroxytryptamine receptor 2B (Homo sapiens, UniProt P41595); assay: GPCRScan assay: inhibition of 5-HT2B; parameters: radioligand conc. used [nm] 1.0 – 2.0, parental cells stable HEK
Jurkat = assay: Jurkat cell line Proliferation assay; type: functional, Homo sapiens; conditions: Compound concentration 10 uM; time 3 day
U-2973 = assay: U2973 cell line Proliferation assay; type: functional, Homo sapiens; conditions: Compound concentration 10 uM; time 3 day
Calu-6 = assay: Calu 6 cell line Proliferation assay; type: functional, Homo sapiens; conditions: Compound concentration 10 uM; time 3 day
Raji = assay: Raji cell line Proliferation assay; type: functional, Homo sapiens; conditions: Compound concentration 10 uM; time 3 day
Pfeiffer = assay: Pfeiffer cell line Proliferation assay; type: functional, Homo sapiens; conditions: Compound concentration 10 uM; time 3 day
MOLM-13 = assay: MOLM-13 cell line Proliferation assay; type: functional, Homo sapiens; conditions: Compound concentration 10 uM; time 3 day
COLO-679 = assay: Colo679 cell line Proliferation assay; type: functional, Homo sapiens; conditions: Compound concentration 10 uM; time 5 day
NCI-H1373 = assay: H1373 cell line Proliferation assay; type: functional, Homo sapiens; conditions: Compound concentration 10 uM; time 3 day
HCC1806 = assay: HCC1806 cell line Proliferation assay; type: functional, Homo sapiens; conditions: Compound concentration 10 uM; time 5 day
U2932 = assay: U2932 cell line Proliferation assay; type: functional, Homo sapiens; conditions: Compound concentration 10 uM; time 3 day
ULA = assay: ULA cell line Proliferation assay; type: functional, Homo sapiens; conditions: Compound concentration 10 uM; time 3 day
BJAB = assay: BJAB cell line Proliferation assay; type: functional, Homo sapiens; conditions: Compound concentration 10 uM; time 3 day
DOHH-2 = assay: DoHH2 cell line Proliferation assay; type: functional, Homo sapiens; conditions: Compound concentration 10 uM; time 3 day
[3] = target: Histone acetyltransferase KAT6A (Homo sapiens) (UniProt Q92794); assay: MYST3 (HAT) CEREP ligand profiling; conditions: Compound concentration 10.0 uM
HCC1143 = assay: HCC1143 cell line Proliferation assay; type: functional, Homo sapiens; conditions: Compound concentration 10 uM; time 5 day
[4] = target: Sodium-dependent serotonin transporter (Homo sapiens, UniProt P31645); assay: GPCRScan assay: inhibition of SERT; parameters: radioligand conc. used [nm] 1.5 – 2.0, parental cells stable HEK
OCI-AML-5 = assay: OCI-AML5 cell line Proliferation assay; type: functional, Homo sapiens; conditions: Compound concentration 10 uM; time 3 day
HCC1187 = assay: HCC1187 cell line Proliferation assay; type: functional, Homo sapiens; conditions: Compound concentration 10 uM; time 5 day
SKM-1 = assay: SKM-1 cell line Proliferation assay; type: functional, Homo sapiens; conditions: Compound concentration 10 uM; time 3 day
KARPAS-299 = assay: KARPAS-299 cell line Proliferation assay; type: functional, Homo sapiens; conditions: Compound concentration 10 uM; time 3 day
SUD4 = assay: SuDHL4 cell line Proliferation assay; type: functional, Homo sapiens; conditions: Compound concentration 10 uM; time 3 day
SU-DHL-5 = assay: SuDHL5 cell line Proliferation assay; type: functional, Homo sapiens; conditions: Compound concentration 10 uM; time 3 day
[5] = target: Protein kinase C iota type (Homo sapiens) (UniProt P41743); conditions: Compound concentration 1000.0 nM
[6] = target: CREB-binding protein/Histone acetyltransferase p300 (Homo sapiens, UniProt Q09472+Q92793); assay: Inhibition of H3K27Ac (DU-145); type: cell-based
[7] = target: Mitogen-activated protein kinase 11 (Homo sapiens) (UniProt Q15759); conditions: Compound concentration 1000.0 nM
[8] = target: Endothelin receptor type B (Homo sapiens) (UniProt P24530); assay: ETB (h) CEREP ligand profiling; conditions: filed as agonist, Compound concentration 10.0 uM
[9] = target: cGMP-inhibited 3',5'-cyclic phosphodiesterase 3A (Homo sapiens) (UniProt Q14432); assay: PDE3A (h) CEREP ligand profiling; conditions: Compound concentration 10.0 uM
[10] = target: Tyrosine-protein kinase ITK/TSK (Homo sapiens) (UniProt Q08881); conditions: Compound concentration 1000.0 nM
[11] = target: Cyclin-dependent kinase 15 (Homo sapiens) (UniProt Q96Q40); conditions: Compound concentration 1000.0 nM
[12] = target: Cyclin-dependent kinase-like 3 (Homo sapiens) (UniProt Q8IVW4); conditions: Compound concentration 1000.0 nM
[13] = target: Calcitonin-gene-related peptide receptor, CALCRL/RAMP1 (Homo sapiens) (UniProt O60894+Q16602); assay: Calcitonin Gene-Related Peptide CGRP1 CEREP ligand profiling; type: protein-complex assay; conditions: Compound concentration 10.0 uM
[14] = tested on: Receptor-type tyrosine-protein kinase FLT3 (Homo sapiens), P36888 [UNDEFINED MUTATION]; conditions: Compound concentration 1000.0 nM
[15] = target: Beta-2 adrenergic receptor (Homo sapiens) (UniProt P07550); assay: beta 2 (h) CEREP ligand profiling; conditions: filed as agonist, Compound concentration 10.0 uM
[16] = target: Serine/threonine-protein kinase N1 (Homo sapiens) (UniProt Q16512); conditions: Compound concentration 1000.0 nM
[17] = target: GABA-A receptor; alpha-1/beta-2/gamma-2 (Homo sapiens) (UniProt P14867+P47870+P18507); assay: GABAA1 (h) (alpha 1,beta 2,gamma 2) CEREP ligand profiling; type: protein-complex assay; conditions: filed as agonist, Compound concentration 10.0 uM
D(3) dopamine receptor = D(3) dopamine receptor (Homo sapiens, UniProt P35462); assay: GPCRScan assay: inhibition of D3; parameters: radioligand conc. used [nm] 0.5 – 1.8, parental cells HEKT
D(3) dopamine receptor, sequence (P35462 whole entry): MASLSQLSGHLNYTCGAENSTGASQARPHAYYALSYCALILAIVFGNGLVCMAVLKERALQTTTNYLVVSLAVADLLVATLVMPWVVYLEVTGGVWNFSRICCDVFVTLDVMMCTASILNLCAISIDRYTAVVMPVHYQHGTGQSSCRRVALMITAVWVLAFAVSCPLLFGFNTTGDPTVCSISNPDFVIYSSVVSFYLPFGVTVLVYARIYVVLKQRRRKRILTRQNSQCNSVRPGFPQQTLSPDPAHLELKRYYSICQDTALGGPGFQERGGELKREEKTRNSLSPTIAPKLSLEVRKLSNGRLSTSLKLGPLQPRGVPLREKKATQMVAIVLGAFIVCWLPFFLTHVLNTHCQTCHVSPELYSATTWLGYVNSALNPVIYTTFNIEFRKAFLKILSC

Sodium-dependent serotonin transporter, sequence (P31645 whole entry): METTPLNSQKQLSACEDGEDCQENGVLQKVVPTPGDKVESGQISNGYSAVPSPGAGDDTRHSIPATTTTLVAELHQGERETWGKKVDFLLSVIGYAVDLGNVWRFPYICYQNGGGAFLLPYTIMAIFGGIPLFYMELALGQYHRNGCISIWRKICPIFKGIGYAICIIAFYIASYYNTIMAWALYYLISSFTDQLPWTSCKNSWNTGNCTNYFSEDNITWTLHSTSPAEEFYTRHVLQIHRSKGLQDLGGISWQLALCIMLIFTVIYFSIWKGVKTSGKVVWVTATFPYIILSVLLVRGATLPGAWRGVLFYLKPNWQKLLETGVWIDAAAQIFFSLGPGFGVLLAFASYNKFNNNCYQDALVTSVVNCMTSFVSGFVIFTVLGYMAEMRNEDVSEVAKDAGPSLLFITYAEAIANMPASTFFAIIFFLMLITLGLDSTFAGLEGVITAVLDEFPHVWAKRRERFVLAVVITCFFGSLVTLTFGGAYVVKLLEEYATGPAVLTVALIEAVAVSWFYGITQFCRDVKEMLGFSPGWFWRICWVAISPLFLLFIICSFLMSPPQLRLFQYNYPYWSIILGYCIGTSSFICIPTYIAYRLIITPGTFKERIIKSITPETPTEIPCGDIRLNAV
5-hydroxytryptamine receptor 2B, sequence (P41595 whole entry): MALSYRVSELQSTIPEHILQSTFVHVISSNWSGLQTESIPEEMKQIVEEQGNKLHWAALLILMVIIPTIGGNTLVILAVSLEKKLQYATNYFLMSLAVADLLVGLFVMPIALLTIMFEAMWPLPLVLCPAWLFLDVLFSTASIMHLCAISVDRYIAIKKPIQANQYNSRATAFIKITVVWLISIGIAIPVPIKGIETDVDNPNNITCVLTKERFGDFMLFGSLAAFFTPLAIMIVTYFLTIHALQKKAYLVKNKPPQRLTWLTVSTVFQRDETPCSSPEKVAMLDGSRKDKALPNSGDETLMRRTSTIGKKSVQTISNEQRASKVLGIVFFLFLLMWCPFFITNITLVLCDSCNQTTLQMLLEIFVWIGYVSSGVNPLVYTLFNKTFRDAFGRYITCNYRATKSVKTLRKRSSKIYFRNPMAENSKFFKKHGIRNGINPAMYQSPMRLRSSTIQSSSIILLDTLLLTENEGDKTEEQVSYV
cGMP-inhibited 3',5'-cyclic phosphodiesterase 3A (Homo sapiens), sequence (Q14432 whole entry): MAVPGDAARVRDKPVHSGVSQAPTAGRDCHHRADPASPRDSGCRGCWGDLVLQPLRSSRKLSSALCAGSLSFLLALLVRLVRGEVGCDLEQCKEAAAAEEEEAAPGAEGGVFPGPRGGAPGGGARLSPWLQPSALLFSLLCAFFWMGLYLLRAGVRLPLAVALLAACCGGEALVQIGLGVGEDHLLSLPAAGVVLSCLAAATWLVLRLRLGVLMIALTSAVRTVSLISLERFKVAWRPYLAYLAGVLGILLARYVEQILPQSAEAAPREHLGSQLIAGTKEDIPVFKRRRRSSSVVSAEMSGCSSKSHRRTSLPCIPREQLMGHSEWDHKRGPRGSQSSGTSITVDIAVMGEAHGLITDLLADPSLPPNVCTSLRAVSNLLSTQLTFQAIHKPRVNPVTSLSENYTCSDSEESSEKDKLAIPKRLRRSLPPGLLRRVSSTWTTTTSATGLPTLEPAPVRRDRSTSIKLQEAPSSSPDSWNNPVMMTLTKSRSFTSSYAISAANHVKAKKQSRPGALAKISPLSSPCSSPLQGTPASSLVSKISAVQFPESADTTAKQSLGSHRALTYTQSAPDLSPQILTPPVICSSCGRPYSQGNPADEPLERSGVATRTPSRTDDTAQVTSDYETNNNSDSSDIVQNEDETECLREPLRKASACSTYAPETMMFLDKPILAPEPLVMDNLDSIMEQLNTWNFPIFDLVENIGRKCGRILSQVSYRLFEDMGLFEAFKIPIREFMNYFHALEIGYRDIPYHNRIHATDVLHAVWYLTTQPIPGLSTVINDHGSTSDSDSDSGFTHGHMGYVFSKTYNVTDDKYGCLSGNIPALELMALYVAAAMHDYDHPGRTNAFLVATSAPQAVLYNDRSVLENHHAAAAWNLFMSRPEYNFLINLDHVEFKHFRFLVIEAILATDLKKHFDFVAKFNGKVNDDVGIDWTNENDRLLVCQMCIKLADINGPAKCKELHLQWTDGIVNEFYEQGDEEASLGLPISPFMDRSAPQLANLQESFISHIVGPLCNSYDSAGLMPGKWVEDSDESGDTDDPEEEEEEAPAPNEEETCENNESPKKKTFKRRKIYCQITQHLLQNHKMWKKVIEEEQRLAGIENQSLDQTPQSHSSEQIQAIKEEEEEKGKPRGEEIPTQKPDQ
Adenosine receptor A1 (Homo sapiens), sequence (P30542 whole entry): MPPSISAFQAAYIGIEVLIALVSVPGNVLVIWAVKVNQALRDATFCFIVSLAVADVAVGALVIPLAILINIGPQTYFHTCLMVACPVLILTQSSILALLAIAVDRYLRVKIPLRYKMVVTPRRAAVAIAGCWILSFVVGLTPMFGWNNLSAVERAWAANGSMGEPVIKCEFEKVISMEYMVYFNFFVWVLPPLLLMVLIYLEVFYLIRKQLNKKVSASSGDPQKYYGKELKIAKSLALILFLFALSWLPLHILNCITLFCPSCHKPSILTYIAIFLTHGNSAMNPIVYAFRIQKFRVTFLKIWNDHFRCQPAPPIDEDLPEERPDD
Mitogen-activated protein kinase 11 (Homo sapiens), sequence (Q15759 whole entry): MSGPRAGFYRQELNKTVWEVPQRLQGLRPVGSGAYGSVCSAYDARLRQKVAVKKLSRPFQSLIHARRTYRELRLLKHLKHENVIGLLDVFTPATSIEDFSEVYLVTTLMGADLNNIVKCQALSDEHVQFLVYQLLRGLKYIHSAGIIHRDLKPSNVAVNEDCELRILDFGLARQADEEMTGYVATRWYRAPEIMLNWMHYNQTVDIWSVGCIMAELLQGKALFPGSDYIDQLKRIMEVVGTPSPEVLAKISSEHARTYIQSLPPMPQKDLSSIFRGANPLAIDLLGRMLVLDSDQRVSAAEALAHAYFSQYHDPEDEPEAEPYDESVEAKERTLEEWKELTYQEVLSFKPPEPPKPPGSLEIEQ
Protein kinase C iota type (Homo sapiens), sequence (P41743 whole entry): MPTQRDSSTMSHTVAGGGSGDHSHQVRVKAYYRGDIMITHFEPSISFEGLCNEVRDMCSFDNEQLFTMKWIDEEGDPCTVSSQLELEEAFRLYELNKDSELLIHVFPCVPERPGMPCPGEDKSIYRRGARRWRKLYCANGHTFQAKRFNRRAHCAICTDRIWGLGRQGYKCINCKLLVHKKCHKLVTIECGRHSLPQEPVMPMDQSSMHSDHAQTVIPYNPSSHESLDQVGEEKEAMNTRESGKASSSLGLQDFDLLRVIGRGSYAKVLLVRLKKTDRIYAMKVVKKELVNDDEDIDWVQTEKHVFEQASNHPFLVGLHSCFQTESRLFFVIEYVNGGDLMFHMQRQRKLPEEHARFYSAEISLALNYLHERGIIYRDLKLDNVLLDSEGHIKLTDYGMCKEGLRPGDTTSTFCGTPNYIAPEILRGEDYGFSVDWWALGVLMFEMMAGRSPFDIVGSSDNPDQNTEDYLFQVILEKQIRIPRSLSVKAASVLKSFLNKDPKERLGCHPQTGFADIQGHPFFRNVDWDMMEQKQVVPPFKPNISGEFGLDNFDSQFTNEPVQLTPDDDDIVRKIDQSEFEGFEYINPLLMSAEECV
Cyclin-dependent kinase 15 (Homo sapiens), sequence (Q96Q40 whole entry): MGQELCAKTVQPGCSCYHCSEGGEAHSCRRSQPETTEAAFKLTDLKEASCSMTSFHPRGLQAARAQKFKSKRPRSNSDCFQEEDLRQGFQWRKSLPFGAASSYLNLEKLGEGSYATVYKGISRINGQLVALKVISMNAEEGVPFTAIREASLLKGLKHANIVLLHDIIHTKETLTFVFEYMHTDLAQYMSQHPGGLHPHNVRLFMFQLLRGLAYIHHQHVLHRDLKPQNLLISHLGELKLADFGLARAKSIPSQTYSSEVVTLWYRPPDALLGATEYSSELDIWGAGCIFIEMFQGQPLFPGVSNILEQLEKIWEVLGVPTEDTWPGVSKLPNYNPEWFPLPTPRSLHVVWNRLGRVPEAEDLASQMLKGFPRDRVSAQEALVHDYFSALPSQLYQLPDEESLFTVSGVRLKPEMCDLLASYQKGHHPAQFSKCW
Endothelin receptor type B (Homo sapiens), sequence (P24530 whole entry): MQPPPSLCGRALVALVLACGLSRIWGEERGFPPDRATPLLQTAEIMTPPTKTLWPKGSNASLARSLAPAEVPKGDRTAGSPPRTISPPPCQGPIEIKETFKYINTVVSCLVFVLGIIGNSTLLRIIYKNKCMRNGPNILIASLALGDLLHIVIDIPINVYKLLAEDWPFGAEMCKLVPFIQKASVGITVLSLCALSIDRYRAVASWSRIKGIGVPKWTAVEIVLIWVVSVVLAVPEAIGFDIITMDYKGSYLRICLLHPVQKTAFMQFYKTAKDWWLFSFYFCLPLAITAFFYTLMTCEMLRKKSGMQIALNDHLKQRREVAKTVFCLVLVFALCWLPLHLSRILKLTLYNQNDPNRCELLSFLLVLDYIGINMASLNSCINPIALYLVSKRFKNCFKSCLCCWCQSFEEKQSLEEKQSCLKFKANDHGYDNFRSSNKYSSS

SMILES: CNC(=O)Nc1ccc2c(c1)CC[C@@]21OC(=O)N(CC(=O)N(Cc2ccc(F)cc2)[C@@H](C)C(F)(F)F)C1=O [A-485]
- Cell Proliferation EC50 (SU-DHL10): 0.9169 µM
- Cell Proliferation EC50 (DU-145): >10 µM
- Cell Proliferation EC50 (JVM-2): >10 µM
- Cell Proliferation EC50 (NCI-H1836): >10 µM
- Cell Proliferation EC50 (OCI-Ly18): 0.3213 µM
- Cell Proliferation EC50 (Hs 294T): 9 µM
- Cell Proliferation EC50 (OCI-Ly7): 1.813 µM
- Cell Proliferation EC50 (Hs 695T): 3.571 µM
- Cell Proliferation EC50 (CHL-1): 0.366 µM
- Cell Proliferation EC50 (NU-DHL-1): 0.5301 µM
- Cell Proliferation EC50 (HCC1599): 4.8529 µM
- Cell Proliferation EC50 (U-937): >10 µM
- Cell Proliferation EC50 (Karpas-1106P): 0.4051 µM
- Cell Proliferation EC50 (CWR22R): 0.32 µM
- Cell Proliferation EC50 (SU-DHL-16): 0.7304 µM
- Cell Proliferation EC50 (NCI-H1930): >10 µM
- Cell Proliferation EC50 (SK-MEL-1): 0.571 µM
- Cell Proliferation EC50 (DU-4475): 0.6683 µM
- Cell Proliferation EC50 (NCI-H128): >10 µM
- Cell Proliferation EC50 (HCC2935): >10 µM
- Cell Proliferation EC50 (SET-2): 2.01 µM
- inhibition [1]: 9%
- Cell Proliferation EC50 (Kasumi 1): 0.285 µM
- Cell Proliferation EC50 (SU-DHL-6): 0.7457 µM
- Cell Proliferation EC50 (U-2940): 1.332 µM
- Cell Proliferation EC50 (Ramos): 0.934 µM
- Cell Proliferation EC50 (AMO1): 1.093 µM
- Cell Proliferation EC50 (SC1): 1.689 µM
- Cell Proliferation EC50 (EOL1): >10 µM
- Ki ([2]; read-out: Ki): 1.29 µM
- Ki ([2]; read-out: pKi (converted)): 1.2 µM
- Cell Proliferation EC50 (Jurkat): 4.03 µM
- Cell Proliferation EC50 (U-2973): 0.6622 µM
- Cell Proliferation EC50 (Calu-6): 8.573 µM
- Cell Proliferation EC50 (Raji): 0.4631 µM
- Cell Proliferation EC50 (Pfeiffer): 0.8586 µM
- Cell Proliferation EC50 (MOLM-13): 0.35 µM
- Cell Proliferation EC50 (COLO-679): 2.258 µM
- Cell Proliferation EC50 (NCI-H1373): 2.341 µM
- Cell Proliferation EC50 (HCC1806): 2.9512 µM
- Cell Proliferation EC50 (U2932): 2.46 µM
- Cell Proliferation EC50 (ULA): 0.5506 µM
- Cell Proliferation EC50 (BJAB): 0.2813 µM
- Cell Proliferation EC50 (DOHH-2): 0.7512 µM
- inhibition [3]: 5.6%
- Cell Proliferation EC50 (HCC1143): >10 µM
- Ki ([4]; read-out: Ki): 0.223 µM
- Ki ([4]; read-out: pKi (converted)): 0.219 µM
- Cell Proliferation EC50 (OCI-AML-5): 4.86 µM
- Cell Proliferation EC50 (HCC1187): >10 µM
- Cell Proliferation EC50 (SKM-1): 1.34 µM
- Cell Proliferation EC50 (KARPAS-299): >10 µM
- Cell Proliferation EC50 (SUD4): 0.7204 µM
- Cell Proliferation EC50 (SU-DHL-5): 0.7606 µM

SMILES: CNC(=O)Nc1ccc2c(c1)[C@@]1(CC2)OC(=O)N(CC(=O)N(Cc2ccc(F)cc2)[C@@H](C)C(F)(F)F)C1=O [A-486]
- residual activity [5]: 91%
- IC50 [6]: > 10 µM
- residual activity [7]: 100%
- inhibition [8]: 8%
- inhibition [9]: -1%
- residual activity [10]: 92%
- residual activity [11]: 100%
- residual activity [12]: 92%
- inhibition [13]: -10%
- residual activity [14]: 99%
- inhibition [15]: 1%
- residual activity [16]: 98%
- inhibition [17]: 0%
- Ki (D(3) dopamine receptor; read-out: Ki): 1.14 µM
- Ki (D(3) dopamine receptor; read-out: pKi (converted)): 1.1 µM
